The results in this text go back to patent publication US20110313006A1, “PHARMACEUTICAL COMPOSITION OF LEVAMLODIPINE OR PHARMACEUTICALLY ACCEPTABLE SALT THEREOF AND β RECEPTOR BLOCKING AGENT, AND USE THEREOF” (SHIHUIDA PHARMACEUTICALS GROUP (JILIN) LTD, priority 2010, published 2011).

The test system of the experiment is SHR rats having spontaneous hypertension. Put plainly: Antihypertension test in rat (systolic pressure at the tail artery, tail volume method). Particulars: for Blood pressure (systolic pressure at the tail artery), 2 weeks after administration: end of week 2; for Blood pressure (systolic pressure at the tail artery), 3 weeks after administration: end of week 3; for Blood pressure (systolic pressure at the tail artery), 4 weeks after administration: end of week 4; for Blood pressure (systolic pressure at the tail artery), before administration / Anti-hypertensive effect compared with the model group: intragastric; for Blood pressure (systolic pressure at the tail artery), before administration: baseline before administration, mean ± spread; for Anti-hypertensive effect compared with the model group: versus model group (0.9% saline). Type of experiment: in vivo. The source says:
Experiment method: 120 SHR rats having spontaneous hypertension (female:male 1:2, weighted 200-240 g) were equally divided into 12 groups according to the level of hypertension (the specific grouping method is as shown in Table 1), and intragastrically administrated with the medicine. For the blood pressure of the rat, the systolic pressure at the tail artery of the rat when being wake and quiet was indirectly measured by an electronic blood pressure meter through tail volume method respectively before administration, and at the end of 1, 2, 3, and 4 weeks after administration.

Setting [1] is: SHR rats, intragastric daily, n = 10, end of week 1, dose per group in Table 1.
Where [2] appears, read: SHR rats, intragastric daily, n = 10, dose per group in Table 1.
[3] abbreviates: SHR rats, n = 10, dose per group in Table 1.

For `OC(CNCC(O)C1CCc2cc(F)ccc2O1)C1CCc2cc(F)ccc2O1` (stereo not shown) [Single medicine group 2, Nebivolol], the “Blood pressure (systolic pressure at the tail artery), 1 week after administration” value (shortened to “Blood pressure … 1 week after administration”) under setting [1] came to 27.28 ± 1.48 Kpa. Under setting [2], the “Blood pressure (systolic pressure at the tail artery), 2 weeks after administration” value (“Blood pressure … 2 weeks after administration” below) was found to be 25.94 ± 1.68 KPa; the “Blood pressure (systolic pressure at the tail artery), 3 weeks after administration” value (from here on “Blood pressure … 3 weeks after administration”) is listed as 25.57 ± 1.61 KPa; the “Blood pressure (systolic pressure at the tail artery), 4 weeks after administration” value (“Blood pressure … 4 weeks after administration” below) is given as 25.29 ± 1.49 KPa. Also, under setting [3], the “Blood pressure (systolic pressure at the tail artery), before administration” value (“Blood pressure … before administration” for short) is on record as 27.42 ± 1.50 KPa. The “Anti-hypertensive effect compared with the model group” value (SHR rats) is “significant anti-hypertensive effect”.
As to `CC(C)NCC(O)COc1ccc(COCCOC(C)C)cc1` (stereo not shown) [Single medicine group 3, Bisoprolol], under setting [1], the “Blood pressure … 1 week after administration” value turned out to be 27.34 ± 1.41 Kpa. For the same molecule, under setting [2], the “Blood pressure … 2 weeks after administration” value is given as 26.14 ± 1.19 KPa; the “Blood pressure … 3 weeks after administration” value turned out to be 25.82 ± 1.20 KPa; the “Blood pressure … 4 weeks after administration” value was found to be 25.58 ± 1.24 KPa. Besides, the “Blood pressure … before administration” value under setting [3] worked out at 27.52 ± 1.46 KPa. The “Anti-hypertensive effect compared with the model group” value (SHR rats) was “significant anti-hypertensive effect”.
On to `CC(C)NCC(O)COc1ccc(CCOCC2CC2)cc1` (stereo not shown) [Single medicine group 4, Betaxolol], for which, under setting [2], the “Blood pressure … 2 weeks after administration” value was 25.99 ± 1.39 KPa and the “Blood pressure … 3 weeks after administration” value was 25.62 ± 1.46 KPa. The “Blood pressure … before administration” value under setting [3] stood at 27.45 ± 1.07 KPa. For the same molecule, for the setting “SHR rats”, the “Anti-hypertensive effect compared with the model group” value is reported as “significant anti-hypertensive effect”. Where the note is “po, 168 h”, the “Blood pressure … 1 week after administration” value is recorded as 27.20 ± 1.10 Kpa.
As to `CCN(CC)C(=O)Nc1ccc(OCC(O)CNC(C)(C)C)c(C(C)=O)c1` (stereo not shown) [Single medicine group 5, Celiprolol], the “Blood pressure … 1 week after administration” value under setting [1] stood at 27.41 ± 1.30 Kpa. Under setting [2], the “Blood pressure … 3 weeks after administration” value stood at 25.83 ± 1.92 KPa and the “Blood pressure … 4 weeks after administration” value is given as 25.60 ± 2.05 KPa. Moreover, the “Blood pressure … before administration” value under setting [3] is on record as 27.56 ± 1.23 KPa. Also, the “Anti-hypertensive effect compared with the model group” value (SHR rats) was “significant anti-hypertensive effect”.
Take `CC(C)(C)NCC(O)COc1cccc2c1CC(O)C(O)C2` (stereo not shown) [Single medicine group 6, Nadolol]: the “Blood pressure … 1 week after administration” value under setting [1] was found to be 27.30 ± 1.56 Kpa. In addition, under setting [2], the “Blood pressure … 2 weeks after administration” value amounted to 26.01 ± 1.42 KPa and the “Blood pressure … 3 weeks after administration” value is recorded as 25.62 ± 1.47 KPa. Moreover, under setting [3], the “Blood pressure … before administration” value is listed as 27.51 ± 1.53 KPa. Also, the “Anti-hypertensive effect compared with the model group” value (SHR rats) is “significant anti-hypertensive effect”.
As to “Levamlodipine benzenesulfonate [Single medicine group 1]”, under “SHR rats”, the “Anti-hypertensive effect compared with the model group” value is listed as “significant anti-hypertensive effect”.
